What all share (type): biochemical
For one experiment, the target named is JAK2 (Homo sapiens, UniProt O60674). Description: JAK2 kinase assay. To be noted: ATP 30 μM; activated JAK2; Caliper LabChip 3000. The method, then: The assays were performed in U-bottom 384-well plates. The final assay volume was 30 μl prepared from 15 μl additions of enzyme and substrates (fluoresceinated peptide FL-JAK2 substrate and ATP) and test compounds in assay buffer (100 mM HEPES pH 7.2, 10 mM MgCl2, 0.015% Brij35, 25 mM β-glycerolphosphate and 4 mM DTT). The reaction was initiated by the combination of activated JAK2 with substrates and test compounds. The reaction was incubated at room temperature for 60 min. and terminated by adding 30 μl of 35 mM EDTA to each sample. The reaction mixture was analyzed on the Caliper LabChip 3000 (Caliper, Hopkinton, Mass.) by electrophoretic separation of the fluorescent substrate and phosphorylated product. Inhibition data were calculated by comparison to no enzyme control reactions for 100% inhibition and vehicle-only reactions for 0% inhibition. The final concentration of reagents in the assays is ATP, 30 μM; FL-JAK2 peptide, 1.5 μM; […], 2.6 nM; and DMSO, 1.6%.
JAK2, sequence (O60674 whole entry): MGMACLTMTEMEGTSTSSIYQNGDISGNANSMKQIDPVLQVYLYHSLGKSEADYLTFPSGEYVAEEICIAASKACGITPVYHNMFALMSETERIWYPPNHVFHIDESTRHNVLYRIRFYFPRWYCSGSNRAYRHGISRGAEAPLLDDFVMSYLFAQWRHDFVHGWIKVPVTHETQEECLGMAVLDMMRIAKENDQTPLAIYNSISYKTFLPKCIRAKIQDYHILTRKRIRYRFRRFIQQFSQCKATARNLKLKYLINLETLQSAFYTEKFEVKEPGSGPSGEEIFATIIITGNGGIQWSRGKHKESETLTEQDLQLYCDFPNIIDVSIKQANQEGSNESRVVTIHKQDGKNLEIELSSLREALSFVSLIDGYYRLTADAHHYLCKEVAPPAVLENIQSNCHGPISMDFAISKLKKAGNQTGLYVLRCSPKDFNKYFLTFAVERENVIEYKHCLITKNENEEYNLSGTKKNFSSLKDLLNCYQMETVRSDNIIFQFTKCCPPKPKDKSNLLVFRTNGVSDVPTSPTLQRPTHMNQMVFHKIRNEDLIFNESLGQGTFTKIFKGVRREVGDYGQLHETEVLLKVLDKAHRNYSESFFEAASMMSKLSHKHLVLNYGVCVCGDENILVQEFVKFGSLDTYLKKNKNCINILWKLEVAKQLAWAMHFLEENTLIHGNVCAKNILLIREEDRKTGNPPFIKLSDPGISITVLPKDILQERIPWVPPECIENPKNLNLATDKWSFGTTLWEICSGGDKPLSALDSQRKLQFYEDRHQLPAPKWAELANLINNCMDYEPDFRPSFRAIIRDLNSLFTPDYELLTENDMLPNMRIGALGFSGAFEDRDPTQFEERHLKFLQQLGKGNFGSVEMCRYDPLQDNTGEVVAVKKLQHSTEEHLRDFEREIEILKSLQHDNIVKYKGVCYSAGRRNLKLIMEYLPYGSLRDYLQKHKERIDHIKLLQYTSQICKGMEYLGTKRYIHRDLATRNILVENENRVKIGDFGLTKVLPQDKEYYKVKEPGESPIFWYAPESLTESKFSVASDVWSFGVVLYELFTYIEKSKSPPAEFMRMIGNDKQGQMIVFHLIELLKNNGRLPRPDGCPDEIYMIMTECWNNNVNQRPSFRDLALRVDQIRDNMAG

The target of the next experiment is CDK2E (Homo sapiens, UniProt P24941). Kind of experiment: CDK 2/Cyclin E Kinase Assay. Particulars: ATP 30 μM; CDK2E 0.2 nM; Caliper LabChip 3000. As for the experimental part:
A. CDK 2/Cyclin E Kinase Assay
(§1) The assays were performed in U-bottom 384-well plates. The final assay volume was 30 μl prepared from 15 μl additions of enzyme and substrates (fluoresceinated CDK2E substrate peptide and ATP) and test compounds in assay buffer (100 mM HEPES pH 7.4, 10 mM MgCl2, 0.015% Brij35 and 4 mM DTT). The reaction was initiated by the combination of bacterially expressed, CDK2E with substrates and test compounds. The reaction was incubated at room temperature for 60 min. and terminated by adding 30 μl of 35 mM EDTA to each sample. The reaction mixture was analyzed on the Caliper LabChip 3000 by electrophoretic separation of the fluorescent substrate and phosphorylated product Inhibition data were calculated by comparison to no enzyme control reactions for 100% inhibition and vehicle-only reactions for 0% inhibition. The final concentration of reagents in the assays is ATP, 30 μM; FL-peptide, 1.5 μM; CDK2E, 0.2 nM; and DMSO, 1.6%. Dose response curves were generated to determine the concentration required inhibiting 50% of kinase activity (IC50). Compounds were dissolved at 10 mM in dimethylsulfoxide (DMSO) and evaluated at eleven concentrations, each in duplicate. IC50 values were derived by non-linear regression analysis.

Another experiment has as its target T1, FLT3 (Homo sapiens, UniProt P36888).
T1 sequence (P36888 27-993): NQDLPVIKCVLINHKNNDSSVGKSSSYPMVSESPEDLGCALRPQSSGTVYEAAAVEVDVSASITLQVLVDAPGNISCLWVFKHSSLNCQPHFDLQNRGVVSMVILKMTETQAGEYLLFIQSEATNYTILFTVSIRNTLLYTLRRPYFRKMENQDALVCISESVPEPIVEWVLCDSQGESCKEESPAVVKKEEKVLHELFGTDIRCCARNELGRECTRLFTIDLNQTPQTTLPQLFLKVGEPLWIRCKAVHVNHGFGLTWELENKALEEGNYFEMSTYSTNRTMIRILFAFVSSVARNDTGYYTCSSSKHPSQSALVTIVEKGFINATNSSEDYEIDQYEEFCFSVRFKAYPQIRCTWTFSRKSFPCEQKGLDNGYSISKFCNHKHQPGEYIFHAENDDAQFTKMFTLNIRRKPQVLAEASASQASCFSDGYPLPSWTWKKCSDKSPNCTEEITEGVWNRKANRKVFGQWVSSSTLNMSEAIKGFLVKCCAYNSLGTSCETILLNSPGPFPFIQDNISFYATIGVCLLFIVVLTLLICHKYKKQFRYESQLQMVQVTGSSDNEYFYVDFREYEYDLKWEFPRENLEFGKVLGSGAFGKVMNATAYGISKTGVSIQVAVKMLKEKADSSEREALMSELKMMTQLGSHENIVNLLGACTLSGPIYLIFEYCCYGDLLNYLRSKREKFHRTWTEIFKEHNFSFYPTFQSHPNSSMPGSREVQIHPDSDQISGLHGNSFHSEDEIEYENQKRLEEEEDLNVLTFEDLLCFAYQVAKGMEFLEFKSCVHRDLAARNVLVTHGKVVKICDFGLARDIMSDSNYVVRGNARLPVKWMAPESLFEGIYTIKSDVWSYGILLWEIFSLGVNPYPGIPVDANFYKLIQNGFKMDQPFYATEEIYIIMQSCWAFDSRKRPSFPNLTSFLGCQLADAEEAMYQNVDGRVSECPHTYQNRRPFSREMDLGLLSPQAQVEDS
Description: FLT3 kinase assay. Particulars: ATP 200 μM; FLT3 4.5 nM; Caliper LabChip 3000. As for the experimental part: as §1, with “FLT3” for “CDK2E”, “FLT3” for “bacterially expressed, CDK2E”, “product.” for “product”, “200 μM,” for “30 μM;”, “FLT3, 4.5 nM” for “CDK2E, 0.2 nM;”

Turning to `O=C(C1CCNCC1)N1CCC[C@H]1c1nc(Nc2cc(C3CC3)[nH]n2)c2cccn2n1` [Example 6, (S)-(2-(4-(5-Cyclopropyl-1H-pyrazol-3-ylamino)pyrrolo[1,2-f][1,2,4]triazin-2-yl)pyrrolidin-1-yl)(piperidin-4-yl)methanone], the IC50 (as a rule, the point on the concentration scale where inhibition reaches its midpoint) at JAK2 came to 10700 nM; at CDK2E, 615 nM; on FLT3, 97 nM.

For the compound `O=C(c1cc[nH]n1)N1CCC[C@H]1c1nc(Nc2cc(C3CC3)[nH]n2)c2cccn2n1` [Example 7, (S)-(2-(4-(5-Cyclopropyl-1H-pyrazol-3-ylamino)pyrrolo[1,2-f][1,2,4]triazin-2-yl)pyrrolidin-1-yl)(1H-pyrazol-3-yl)methanone], the values for the IC50 at JAK2, on CDK2E and at FLT3 were 36 nM, 54 nM and 4 nM, respectively.

Consider `O=C(c1cnccn1)N1CCC[C@@H]1c1nc(Nc2cc(C3CC3)[nH]n2)c2cccn2n1` [Example 12, (R)-(2-(4-(5-Cyclopropyl-1H-pyrazol-3-ylamino)pyrrolo[1,2-f][1,2,4]triazin-2-yl)pyrrolidin-1-yl)(pyrazin-2-yl)methanone], for which the concentration for half-maximal inhibition (IC50) at JAK2 was determined as 4480 nM; at CDK2E, 256 nM; on FLT3 it was 6 nM.

As to `O=C(c1nccs1)N1CCC[C@@H]1c1nc(Nc2cc(C3CC3)[nH]n2)c2cccn2n1` [Example 15, (R)-(2-(4-(5-Cyclopropyl-1H-pyrazol-3-ylamino)pyrrolo[1,2-f][1,2,4]triazin-2-yl)pyrrolidin-1-yl)(thiazol-2-yl)methanone], the IC50 at JAK2 is 324 nM; at CDK2E, 162 nM; at FLT3, 24 nM.

Values taken from patent publication US8198438B2, “Pyrrolotriazine kinase inhibitors” (Bristol-Myers Squibb Company, priority 2007, dated 2012).
